Data taken from ChEMBL document CHEMBL3393049, “Syntheses and Antituberculosis Activity of 1,3-Benzothiazinone Sulfoxide and Sulfone Derived from BTZ043” (ACS Med Chem Lett, 2015).
Converted amounts (≈) assume the structure as drawn.

Tested on: Mycobacterium tuberculosis variant bovis BCG
Assay: Antimycobacterial activity against Mycobacterium bovis BCG ATCC 35734 assessed as reduction in bacterial growth incubated for 6 days by MABA method
Format: functional
Conditions: ATCC 35734, 144 h

| SMILES | MIC [µM] |
| --- | --- |
| C[C@H]1COC2(CCN(c3nc(=O)c4cc(C(F)(F)F)cc([N+](=O)[O-])c4s3)CC2)O1 [BTZ-043] | < 0.02 |
| NNC(=O)c1ccncc1 [ISONIAZID] | 0.5 (≈ 0.0686 µg/mL) |
| C[C@H]1COC2(CCN(C3=NC(=O)c4cc(C(F)(F)F)cc([N+](=O)[O-])c4S3(=O)=O)CC2)O1 | > 1 |
| CO[C@H]1/C=C/O[C@@]2(C)Oc3c(C)c(O)c4c(O)c(c(/C=N/N5CCN(C)CC5)c(O)c4c3C2=O)NC(=O)/C(C)=C\C=C\[C@H](C)[C@H](O)[C@@H](C)[C@@H](O)[C@@H](C)[C@H](OC(C)=O)[C@@H]1C [RIFAMPIN] | 0.02 (≈ 0.0165 µg/mL) |
| C[C@H]1COC2(CCN(c3nc(=O)c4cc(C(F)(F)F)cc([N+](=O)[O-])c4[s+]3[O-])CC2)O1 (stereo not given in full) | 0.21 (≈ 0.094 µg/mL) |
